Measurements as given in patent publication US12304890B2, “R-type pyridyloxycarboxylic acid, salt and ester derivative thereof, and preparation method therefor, and herbicidal composition and application thereof” (Qingdao Kingagroot Chemical Compound Co., Ltd., priority 2018, dated 2025).

Experiments:
Type in all cases: in vivo
[1] = test system: Monocotyledonous and dicotyledonous weed seeds and main crop seeds; test: Post-emergence test experiment, other weeds and crops (Table 4, 1000 g a.i./ha); settings: 3 weeks in greenhouse, fresh weight inhibition
How it was run: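 Growth inhibition is scored on fresh weight. Spray solutions were made in acetone with tween-80, diluted in water, plus 1.5 L/ha methyl oleate emulsible concentrate. Plants from greenhouse-grown weed and crop seeds were treated post-emergence at 2-3 leaves, 2 weeks after sowing.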

Echinochloa crusgalli = test: Post-emergence test experiment, Echinochloa crusgalli; settings: 1000 g a.i./ha, 3 weeks in greenhouse, fresh weight inhibition
How it was run: (§1)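 Growth inhibition is given as reduction in fresh weight, assessed 3 weeks post-treatment in the greenhouse. Spray solutions (acetone, tween-80, water, with 1.5 L/ha methyl oleate concentrate synergist) were applied to weeds and crops at 2-3 leaves, 2 weeks from sowing.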

Digitaria sanguinalis = test: Post-emergence test experiment, Digitaria sanguinalis; settings: 1000 g a.i./ha, 3 weeks in greenhouse, fresh weight inhibition
How it was run: as §1

SMILES	Activity level (growth inhibition rate), Abutilon theophrasti Medic. [1]	Activity level (growth inhibition rate), Galium aparine [1]	Activity level (growth inhibition rate), Monochoria Vaginalis [1]	Activity level (growth inhibition rate), Echinochloa crusgalli (Echinochloa crusgalli)	Activity level (growth inhibition rate), Digitaria sanguinalis (Digitaria sanguinalis)
CC(Oc1nc(F)c(Cl)c(N)c1Cl)C(=O)SCc1ccccc1C(F)(F)F (stereo not shown) [Compound 2-328]	5 (Level 5: the growth inhibition rate is greater than 85%)	5 (Level 5: the growth inhibition rate is greater than 85%)	5 (Level 5: the growth inhibition rate is greater than 85%)	5 (Level 5: the growth inhibition rate is greater than 85%)	5 (Level 5: the growth inhibition rate is greater than 85%)
CC(Oc1nc(F)c(Cl)c(N)c1Cl)C(=O)OCc1cccc(C(F)(F)F)c1 (stereo not shown) [Compound 2-329]	5 (Level 5: the growth inhibition rate is greater than 85%)	5 (Level 5: the growth inhibition rate is greater than 85%)	5 (Level 5: the growth inhibition rate is greater than 85%)	5 (Level 5: the growth inhibition rate is greater than 85%)	5 (Level 5: the growth inhibition rate is greater than 85%)
CC(Oc1nc(F)c(Cl)c(N)c1Cl)C(=O)SCc1cccc(C(F)(F)F)c1 (stereo not shown) [Compound 2-330]	5 (Level 5: the growth inhibition rate is greater than 85%)	5 (Level 5: the growth inhibition rate is greater than 85%)	5 (Level 5: the growth inhibition rate is greater than 85%)	5 (Level 5: the growth inhibition rate is greater than 85%)	5 (Level 5: the growth inhibition rate is greater than 85%)
CC(Oc1nc(F)c(Cl)c(N)c1Cl)C(=O)OCc1ccc(C(F)(F)F)cc1 (stereo not shown) [Compound 2-331]	5 (Level 5: the growth inhibition rate is greater than 85%)	5 (Level 5: the growth inhibition rate is greater than 85%)	5 (Level 5: the growth inhibition rate is greater than 85%)	5 (Level 5: the growth inhibition rate is greater than 85%)	5 (Level 5: the growth inhibition rate is greater than 85%)
C[C@@H](Oc1nc(F)c(Cl)c(N)c1Cl)C(=O)SCc1ccc(C(F)(F)F)cc1 [Compound 2-332]	5 (Level 5: the growth inhibition rate is greater than 85%)	5 (Level 5: the growth inhibition rate is greater than 85%)	5 (Level 5: the growth inhibition rate is greater than 85%)	5 (Level 5: the growth inhibition rate is greater than 85%)	5 (Level 5: the growth inhibition rate is greater than 85%)
C[C@@H](Oc1nc(F)c(Cl)c(N)c1Cl)C(=O)OCc1ccccc1C#N [Compound 2-333]	5 (Level 5: the growth inhibition rate is greater than 85%)	5 (Level 5: the growth inhibition rate is greater than 85%)	5 (Level 5: the growth inhibition rate is greater than 85%)	5 (Level 5: the growth inhibition rate is greater than 85%)	5 (Level 5: the growth inhibition rate is greater than 85%)
C[C@@H](Oc1nc(F)c(Cl)c(N)c1Cl)C(=O)SCc1ccccc1C#N [Compound 2-334]	5 (Level 5: the growth inhibition rate is greater than 85%)	5 (Level 5: the growth inhibition rate is greater than 85%)	5 (Level 5: the growth inhibition rate is greater than 85%)	5 (Level 5: the growth inhibition rate is greater than 85%)	5 (Level 5: the growth inhibition rate is greater than 85%)
C[C@@H](Oc1nc(F)c(Cl)c(N)c1Cl)C(=O)OCc1cccc(C#N)c1 [Compound 2-335]	5 (Level 5: the growth inhibition rate is greater than 85%)	5 (Level 5: the growth inhibition rate is greater than 85%)	5 (Level 5: the growth inhibition rate is greater than 85%)	5 (Level 5: the growth inhibition rate is greater than 85%)	5 (Level 5: the growth inhibition rate is greater than 85%)
C[C@@H](Oc1nc(F)c(Cl)c(N)c1Cl)C(=O)SCc1cccc(C#N)c1 [Compound 2-336]	5 (Level 5: the growth inhibition rate is greater than 85%)	5 (Level 5: the growth inhibition rate is greater than 85%)	5 (Level 5: the growth inhibition rate is greater than 85%)	5 (Level 5: the growth inhibition rate is greater than 85%)	5 (Level 5: the growth inhibition rate is greater than 85%)
C[C@@H](Oc1nc(F)c(Cl)c(N)c1Cl)C(=O)OCc1ccc(C#N)cc1 [Compound 2-337]	5 (Level 5: the growth inhibition rate is greater than 85%)	5 (Level 5: the growth inhibition rate is greater than 85%)	5 (Level 5: the growth inhibition rate is greater than 85%)	5 (Level 5: the growth inhibition rate is greater than 85%)	5 (Level 5: the growth inhibition rate is greater than 85%)
C[C@@H](Oc1nc(F)c(Cl)c(N)c1Cl)C(=O)SCc1ccc(C#N)cc1 [Compound 2-338]	5 (Level 5: the growth inhibition rate is greater than 85%)	5 (Level 5: the growth inhibition rate is greater than 85%)	5 (Level 5: the growth inhibition rate is greater than 85%)	5 (Level 5: the growth inhibition rate is greater than 85%)	5 (Level 5: the growth inhibition rate is greater than 85%)
C[C@@H](Oc1nc(F)c(Cl)c(N)c1Cl)C(=O)Sc1ccc2ccccc2c1 [Compound 2-339]	5 (Level 5: the growth inhibition rate is greater than 85%)	5 (Level 5: the growth inhibition rate is greater than 85%)	5 (Level 5: the growth inhibition rate is greater than 85%)	5 (Level 5: the growth inhibition rate is greater than 85%)	5 (Level 5: the growth inhibition rate is greater than 85%)
C[C@@H](Oc1nc(F)c(Cl)c(N)c1Cl)C(=O)OCc1ccc2ccccc2c1 [Compound 2-340]	5 (Level 5: the growth inhibition rate is greater than 85%)	5 (Level 5: the growth inhibition rate is greater than 85%)	5 (Level 5: the growth inhibition rate is greater than 85%)	5 (Level 5: the growth inhibition rate is greater than 85%)	5 (Level 5: the growth inhibition rate is greater than 85%)
C[C@@H](Oc1nc(F)c(Cl)c(N)c1Cl)C(=O)OCc1cccc2ccccc12 [Compound 2-341]	5 (Level 5: the growth inhibition rate is greater than 85%)	5 (Level 5: the growth inhibition rate is greater than 85%)	5 (Level 5: the growth inhibition rate is greater than 85%)	5 (Level 5: the growth inhibition rate is greater than 85%)	5 (Level 5: the growth inhibition rate is greater than 85%)
